Values of other authors as cited in patent publication US7641924B2, “Nutritional composition for controlling blood sugar level” (Meiji Dairies Corporation, priority 2001, dated 2010).

Legend:
[1] = target: isomaltase in the small intestine (Homo sapiens, UniProt P14410)
[2] = in vivo

Chain of isomaltase in the small intestine (P14410 whole entry): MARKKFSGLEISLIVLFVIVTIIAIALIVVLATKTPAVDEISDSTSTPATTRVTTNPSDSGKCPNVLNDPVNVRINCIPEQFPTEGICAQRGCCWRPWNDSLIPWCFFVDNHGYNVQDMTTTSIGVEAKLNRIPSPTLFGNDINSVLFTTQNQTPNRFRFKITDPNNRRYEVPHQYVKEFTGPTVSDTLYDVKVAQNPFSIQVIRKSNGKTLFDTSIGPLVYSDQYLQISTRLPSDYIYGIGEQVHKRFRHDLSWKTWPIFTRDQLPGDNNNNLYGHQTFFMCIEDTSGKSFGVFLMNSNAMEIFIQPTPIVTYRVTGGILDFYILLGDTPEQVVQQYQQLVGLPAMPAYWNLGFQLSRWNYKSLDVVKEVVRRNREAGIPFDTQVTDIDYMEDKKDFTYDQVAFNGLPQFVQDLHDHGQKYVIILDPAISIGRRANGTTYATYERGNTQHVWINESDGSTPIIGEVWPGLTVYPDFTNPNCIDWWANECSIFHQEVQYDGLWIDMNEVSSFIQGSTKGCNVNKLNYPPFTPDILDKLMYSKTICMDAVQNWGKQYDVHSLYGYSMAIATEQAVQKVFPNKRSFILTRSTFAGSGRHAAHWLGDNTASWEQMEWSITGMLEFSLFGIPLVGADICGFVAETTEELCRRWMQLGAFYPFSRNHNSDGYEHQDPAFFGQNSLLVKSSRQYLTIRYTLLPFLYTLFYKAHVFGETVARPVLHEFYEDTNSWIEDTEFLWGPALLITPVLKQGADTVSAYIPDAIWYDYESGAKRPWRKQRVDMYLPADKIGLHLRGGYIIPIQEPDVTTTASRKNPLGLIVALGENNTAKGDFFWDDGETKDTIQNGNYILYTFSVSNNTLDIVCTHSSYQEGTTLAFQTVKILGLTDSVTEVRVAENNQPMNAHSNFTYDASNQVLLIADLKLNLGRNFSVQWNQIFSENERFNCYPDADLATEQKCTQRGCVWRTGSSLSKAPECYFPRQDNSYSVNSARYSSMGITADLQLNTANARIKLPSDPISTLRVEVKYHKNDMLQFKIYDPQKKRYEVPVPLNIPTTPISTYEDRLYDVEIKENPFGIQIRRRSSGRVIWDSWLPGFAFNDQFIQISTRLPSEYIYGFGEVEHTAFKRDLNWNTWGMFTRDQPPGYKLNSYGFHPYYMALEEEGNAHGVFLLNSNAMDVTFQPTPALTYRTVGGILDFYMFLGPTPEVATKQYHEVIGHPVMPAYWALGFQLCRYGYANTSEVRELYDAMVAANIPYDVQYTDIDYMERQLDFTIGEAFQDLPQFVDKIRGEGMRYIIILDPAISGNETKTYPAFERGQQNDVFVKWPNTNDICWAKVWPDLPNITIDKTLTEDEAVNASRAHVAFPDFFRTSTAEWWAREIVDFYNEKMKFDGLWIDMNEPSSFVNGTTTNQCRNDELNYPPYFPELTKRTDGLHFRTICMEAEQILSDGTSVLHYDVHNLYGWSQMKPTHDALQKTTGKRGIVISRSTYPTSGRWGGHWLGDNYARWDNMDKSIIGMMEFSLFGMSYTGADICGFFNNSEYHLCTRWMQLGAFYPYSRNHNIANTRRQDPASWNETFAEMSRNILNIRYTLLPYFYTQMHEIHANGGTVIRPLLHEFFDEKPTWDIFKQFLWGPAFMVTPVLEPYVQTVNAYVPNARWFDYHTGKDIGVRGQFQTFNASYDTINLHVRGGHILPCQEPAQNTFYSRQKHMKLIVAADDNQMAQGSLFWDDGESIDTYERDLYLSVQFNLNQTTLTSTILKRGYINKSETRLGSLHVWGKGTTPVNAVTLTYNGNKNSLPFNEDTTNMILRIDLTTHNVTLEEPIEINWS

Row | Molecule | hydrolysis rate relative to that of sucrose [1] | blood glucose level after intake [2] | insulin level after intake [2] | hydrolysis rate relative to that of palatinose ([1]; small intestine)
1 | OC[C@H]1O[C@H](OC[C@H]2OC(O)(CO)[C@@H](O)[C@@H]2O)[C@H](O)[C@@H](O)[C@@H]1O (some centres unmarked) [palatinose, Palatinose] | one fifth | maintained at predetermined levels over many hours | maintained at predetermined levels over many hours | 
2 | Trehalulose | one third |  |  | about 2 times
